For experiment [1], the target named is T1, EcGNPDA (glucosamine-6-phosphate deaminase from Escherichia coli) (Escherichia coli, UniProt P0A759, C118S/D165C/S206W/C228S/C239S).
T1 construct: gene nagB; full-length homohexamer; plasmid pTZ18RnagB in E. coli IBPC590 Δnag (stated for the mutant); encapsulated in silica sol-gel in T quaternary conformation (mutant F also in solution)
The experiment in a line: initial velocity fitted to MWC equation. The class given is biochemical. Conditions: mutant F, soluble enzyme; MWC R-state substrate dissociation constant (stronger state) from velocity data; cooperative; read-out: K R ^a. From the text: initial velocity fitted to MWC equation on […] (glucosamine-6-phosphate deaminase from Escherichia coli)

Experiment [2] has as its target T2, EcGNPDA (glucosamine-6-phosphate deaminase from Escherichia coli) (Escherichia coli, UniProt P0A759).
T2 construct: gene nagB; full-length homohexamer; plasmid pTZ18RnagB in E. coli IBPC590 Δnag (stated for the mutant); encapsulated in silica sol-gel in T quaternary conformation (mutant F also in solution)
The experiment in a line: near-UV circular dichroism of enzyme-doped gels, […] nm. The class given is binding. Conditions: allosteric activator, 1 mM; ligand-free R-state gel; 100 mM Tris-HCl pH 7.7, 30°C.

Structures are written as SMILES.

Data on two molecules can be found in article PMC4008608, “The Tertiary Origin of the Allosteric Activation of E. coli Glucosamine-6-Phosphate Deaminase Studied by Sol-Gel Nanoencapsulation of Its T Conformer” (PLoS ONE, 2014).

`N[C@H]1C(O)O[C@H](COP(=O)(O)O)[C@@H](O)[C@@H]1O` (some centres unmarked) [GlcN6P]: the Kd in experiment [1] came out at 440 ± 10 µM.
As for `CC(=O)N[C@H]1C(O)O[C@H](COP(=O)(O)O)[C@@H](O)[C@@H]1O` (some centres unmarked) [GlcNAc6P], the “near-UV circular dichroism of enzyme-doped gels, 274 nm” value in experiment [2] was “Only the enzyme in the R state when in presence of the activator, displays”.
